Assay results from US20130165679A1, “ALPHA-GLUCOSIDASE INHIBITOR” (priority 2011, published 2013).
≈ marks a conversion by molar mass, not a printed value. Like-named read-outs stand apart in the source and are kept apart here.

Test system: α-glucosidase
Type: biochemical
Conditions: for IC50 (concentration to obtain 50% enzyme inhibitory activity): obtained by interpolation from inhibition rate data
Protocol: Examples of unsaturated fatty acid used to analyze its enzyme inhibitive activity as a α-glucosidase inhibitor include oleic acid (Ω9), linoleic acid (Ω6), and α-linolenic acid (Ω3).
In the analytical method, p-nitrophenyl-α-D-glucopyranoside was used as a substrate. The absorbance was measured by spectrophotometry to determine the α-glucosidase inhibition activity of samples (Apostolidis E. Lee C M. In vitro potential of Ascophyllum nodosam phenolic antioxidant-mediated alpha-glucosidase and alpha-amylase inhibition. Journal of Food Science 2010, 75:H97-102; Kang W Y, Song Y L, Zhang L. α-Glucosidase inhibitory and antioxidant properties and antidiabetic activity of Hypericum ascyron L. Medicinal Chemistry Research 2011.20:809-816).
To a 1.5 ml eppendorf tube containing 0.05 ml of sample solution (in 5% methanol), 0.1 ml of α-glucosidase solution (2 U/ml; in 100 mM phosphate buffer, pH 6.9) was added. The mixture was incubated in 37° C. water bath for 10 min, and then 0.05 ml of 5 mM p-nitrophenyl-α-D-glucopyranoside (in 100 mM phosphate buffer, pH 6.9) was added and mixed homogeneously. The mixture was incubated in 37° C. water bath for 10 min, and then in boiling water for 5 min to stop the reaction. After the addition of 1 ml of deionized water, the absorbance at 405 nm was measured by spectrophotometer (U-1800, Hitachi. Tokyo, Japan). • 1. Determining the α-glucosidase inhibition activity of oleic acid (as the α-glucosidase inhibitor): • A. Experimental group: enzyme+substrate+unsaturated fat acid (oleic acid) • B. Control: enzyme+substrate+buffer • C. Background: buffer+buffer+unsaturated fatty acid (oleic acid) • Calculation of the rate of inhibition:
Inhibition rate %=[ODControl−(ODExperimental group−ODBackground)]/ODControl×100%

| Structure (SMILES) | Inhibition rate (%) (0.0125 mg/ml) | Inhibition rate (%) (0.0250 mg/ml) | Inhibition rate (%) (0.0500 mg/ml) | IC50 (concentration to obtain 50% enzyme inhibitory activity) [µg/mL] | Inhibition rate (%) (0.01 mg/ml) | Inhibition rate (%) (0.02 mg/ml) | Inhibition rate (%) (0.04 mg/ml) | Inhibition rate (%) (0.06 mg/ml) |
| --- | --- | --- | --- | --- | --- | --- | --- | --- |
| CCCCC/C=C\C/C=C\CCCCCCCC(=O)O [linoleic acid] | 2.99 ± 0.36 | 30.10 ± 0.54 | 91.60 ± 0.62 | 33 (≈ 118 µM) |  |  |  |  |
| CCCCCCCC/C=C\CCCCCCCC(=O)O [oleic acid] |  |  |  | 22 (≈ 77.9 µM) | 11.8 ± 0.99 | 52.2 ± 0.55 | 96.7 ± 0.06 |  |
| CC/C=C\C/C=C\C/C=C\CCCCCCCC(=O)O [α-linolenic acid] |  |  | 57.5 ± 2.39 | 47 (≈ 169 µM) |  |  | 31.6 ± 1.80 | 81.0 ± 0.13 |
